In US20260184669A1, “LIPID COMPOUND AND COMPOSITION FOR DELIVERY OF ACTIVE SUBSTANCE” (KOREA RESEARCH INSTIUTE OF BIOSCIENCE AND BIOTECHNOLOGY, priority 2022, published 2026):

Columns and labels:
[1] = test system: IL-6 mRNA level in HEK-293T cells; settings: human
female C57BL/6 mice = assay: Protein expression efficiency of fLuc mRNA-LNPs after intramuscular injection (IVIS whole-body luminescence); assay type: in vivo; settings: for Total flux 1 hour / Total flux 3 hours / Total flux 6 hours / Total flux 48 hours / Total flux 72 hours / Total flux: fLuc mRNA-LNP, intramuscular injection, luminescence at injection site, mice; for Total flux 1 hour: 1 hour after administration; for Total flux 3 hours: 3 hours after administration; for Total flux 6 hours: 6 hours after administration; for Total flux 48 hours: 48 hours after administration; for Total flux 72 hours: 72 hours after administration; for Total flux: after administration; for Fold increase in total flux at 3 h, MC3: relative to control LNP formulated with MC3; for Fold increase in total flux at 3 h, MC3 / Fold increase in total flux at 3 h, SM-102: 3 hours after intramuscular injection; for Fold increase in total flux at 3 h, SM-102: relative to control LNP formulated with SM-102
Method in brief: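 Female C57BL/6 mice (6-10 weeks, n≥4) got intramuscular fLuc mRNA-LNPs at 0.1-0.5 mg/kg mRNA. Injection-site luminescence was imaged under isoflurane at 1-72 h, 10 min after i.p. D-luciferin (200 μL, 15 mg/mL). Expression at 3 h was taken relative to MC3 or SM-102 LNPs.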

[2] = Stability of mRNA-LNPs according to storage temperature and duration; assay type: physicochemical; settings: for Normalized EE % D-1 / Size (nm) D-1 / PDI D-1: day 1; for Normalized EE % D-7 / PDI D-7 / Size (nm) D-7: day 7; for Normalized EE % D-30 / PDI D-30 / Size (nm) D-30: day 30
Experimental: Stability of fLuc mRNA-LNPs produced using various ionizable lipids according to the method of Example 27, was assessed by storing the LNPs at 4° C. and 25° C. At 1, 7, and 30 days post-manufacture, the size, PDI, and encapsulation efficiency (EE) of each mRNA-LNPs samples were measured using the methods described in Experimental Examples 2 and 3.

[3] = Size, polydispersity index and surface charge of mRNA-LNP (Malvern Zetasizer Nano ZS90); assay type: physicochemical; settings: for PDI / size (nm) Number: mRNA-LNP made with the ionizable lipid at its optimal formulation (Table 2); for size (nm) Number: diluted with PBS to 1 μg/mL mRNA; for Zeta (mV): surface charge of mRNA-LNP made with the ionizable lipid at its optimal formulation (Table 2)
Method in brief: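 Dynamic/electrophoretic light scattering of LNPs diluted in PBS to a final mRNA concentration of 1 μg/mL. Readouts were particle size, PDI and surface charge.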

[4] = test system: IL-1β mRNA level in HEK-293T cells; settings: human
[5] = mRNA encapsulation efficiency (Quant-IT RiboGreen RNA assay); assay type: physicochemical; settings: mRNA encapsulation efficiency of mRNA-LNP made with the ionizable lipid; average of two measurements
Method in brief: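 LNP samples read with RiboGreen reagent in TE buffer with or without 2% Triton X-100 (37 °C, 10 min) to release encapsulated mRNA. Fluorescence at λex 480/λem 520 nm; EE % calculated from the two readings, averaged over two independent measurements.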

[6] = test system: CCL2 mRNA level in HEK-293T cells; settings: human
[7] = test system: CCL3 mRNA level in HEK-293T cells; settings: human

SMILES | IL-6 Average [1] | Total flux 1 hour (female C57BL/6 mice) | Total flux 3 hours (female C57BL/6 mice) | Total flux 6 hours (female C57BL/6 mice) | Total flux 48 hours (female C57BL/6 mice) | Total flux 72 hours (female C57BL/6 mice) | Total flux (female C57BL/6 mice) | Fold increase in total flux at 3 h, MC3 (female C57BL/6 mice) | Fold increase in total flux at 3 h, SM-102 (female C57BL/6 mice) | Normalized EE % D-1 ([2]; fLuc mRNA-LNP stored at 4° C.) [%] | Size (nm) D-1 ([2]; fLuc mRNA-LNP stored at 4° C.) [nm] | Normalized EE % D-7 ([2]; fLuc mRNA-LNP stored at 4° C.) [%] | PDI D-7 ([2]; fLuc mRNA-LNP stored at 4° C.) | Size (nm) D-7 ([2]; fLuc mRNA-LNP stored at 4° C.) [nm] | Normalized EE % D-30 ([2]; fLuc mRNA-LNP stored at 4° C.) [%] | PDI D-30 ([2]; fLuc mRNA-LNP stored at 4° C.) | Size (nm) D-30 ([2]; fLuc mRNA-LNP stored at 4° C.) [nm] | Normalized EE % D-1 ([2]; fLuc mRNA-LNP stored at 25° C.) [%] | PDI D-1 ([2]; fLuc mRNA-LNP stored at 25° C.) | Size (nm) D-1 ([2]; fLuc mRNA-LNP stored at 25° C.) [nm] | also measured
CCCCCCCCCCCOC(=O)CCCCCN(CCCCCCCC(=O)OC(CCCCCCCC)CCCCCCCC)CC(O)CCCCNC(=O)c1ccc[nH]1 (stereo not drawn) [Compound 16, Heptadecan-9-yl 8-((2-hydroxy-6-(1H-pyrrole-2-carboxamido)hexyl)(6-oxo-6-(undecyloxy)hexyl)amino)octanoate] | 0.97 | 1.11E+07 | 5.26E+07 | 3.64E+07 | 1.71E+06 | 1.40E+06 | 1.61E+07 | 4.26 | 0.47 | 90.9 | 132.2 | 91.5 | 0.138 | 137.1 | 86.9 | 0.069 | 141.5 | 90.9 | 0.101 | 132.2 | Normalized EE % D-7 ([2]; fLuc mRNA-LNP stored at 25° C.): 89.1%; PDI D-7 ([2]; fLuc mRNA-LNP stored at 25° C.): 0.059; Size (nm) D-7 ([2]; fLuc mRNA-LNP stored at 25° C.): 137.7 nm; Normalized EE % D-30 ([2]; fLuc mRNA-LNP stored at 25° C.): 84.4%; PDI D-30 ([2]; fLuc mRNA-LNP stored at 25° C.): 0.093; Size (nm) D-30 ([2]; fLuc mRNA-LNP stored at 25° C.): 145.1 nm; PDI [3]: 0.101; size (nm) Number [3]: 132 nm; Zeta (mV) [3]: −7.87 mV; IL-1β Average [4]: 0.74; EE (%) [5]: 91%; CCL2 Average [6]: 0.79; CCL3 Average [7]: 2.31
CCCCCCCCCCCOC(=O)CCCCCN(CCCCCCCC(=O)OC(CCCCCCCC)CCCCCCCC)CC(O)CCCCNC(=O)c1ccn(C)c1 (stereo not drawn) [Compound 19, Heptadecan-9-yl 8-((2-hydroxy-6-(1-methyl-1H-pyrrole-3-carboxamido)hexyl) (6-oxo-6-(undecyloxy)hexyl)amino)octanoate] | 0.89 | 3.16E+07 | 5.15E+07 | 3.82E+07 | 1.12E+06 | 5.38E+05 | 8.29E+06 | 4.17 | 0.46 | 93.1 | 184.7 | 90.6 | 0.122 | 161.2 | 87.2 | 0.071 | 177.4 | 93.1 | 0.193 | 184.7 | Normalized EE % D-7 ([2]; fLuc mRNA-LNP stored at 25° C.): 88.1%; PDI D-7 ([2]; fLuc mRNA-LNP stored at 25° C.): 0.107; Size (nm) D-7 ([2]; fLuc mRNA-LNP stored at 25° C.): 172.5 nm; Normalized EE % D-30 ([2]; fLuc mRNA-LNP stored at 25° C.): 88.3%; PDI D-30 ([2]; fLuc mRNA-LNP stored at 25° C.): 0.159; Size (nm) D-30 ([2]; fLuc mRNA-LNP stored at 25° C.): 171.7 nm; PDI [3]: 0.193; size (nm) Number [3]: 185 nm; Zeta (mV) [3]: −5.68 mV; IL-1β Average [4]: 1.07; EE (%) [5]: 93%; CCL2 Average [6]: 0.91; CCL3 Average [7]: 1.04
